Assays:
mice = assay: Homing of CFSE labeled donor bone marrow cells in lethally irradiated mice; format: in vivo, mouse; conditions: 10 mg/kg IP
Protocol: Drugs are administered following radiation, following the transplant, and again at 8 hours after the transplant.

[1] = test system: cell numbers in a cell culture assay; assay: Toxicity in cell culture assay (decrease of cell numbers); format: cell-based; conditions: concentration needed to decrease cell numbers
Protocol: (§1) Time to inhibition refers to the time needed to inhibit the generation of NADH by 15-PGDH from the moment with drug is added into the reaction mix. Delta Tm refers to the shift in melting temperature of recombinant 15-PGDH in the presence of drug (with cofactor NADH also present). Concentration of Full Cell Line Reporter Induction refers to the concentration of drug that needs to be added to reporter cell line to achieve maximal induction of the 15-PGDH-luciferase gene fusion reporter cassette, as measured by luciferase assays. Hepatocyte stability refers to the half-life of compound in the presence of hepatocytes in culture. Toxicity refers to the concentration of compound needed to decrease cell numbers in a cell culture assay.

C57BL/6J mice [2] = assay: Survival of 11Gy irradiated C57BL/6J mice given marrow allograft, SW033291 5 mg/kg IP bid for 21 days, 3 mice per condition; format: in vivo, mouse
From the text: The experimental design is depicted in FIG. 50.
Under the conditions of the mouse colony during this study, control mice receiving 100,000-500,000 cells are all dead between days 4-13 of study. […] Such activity would be of particular utility in settings, such as transplantation with umbilical cord stem cells, in which donor cell numbers are limited.

A549 cells = assay: PGE2 in medium of IL1-beta stimulated A549 cells; format: cell-based
C57BL/6J mice [3] = assay: Bone marrow of C57BL/6J mice treated IP; format: in vivo, mouse; conditions: 5 mg/kg or 20 mg/kg IP
From the text: Experimental conditions are noted on the figure.

[4] = test system: 15-PGDH-luciferase fusion reporter in V9m, LS174T and V503 cells; assay: 15-PGDH-luciferase fusion reporter induction in colon cancer cell lines; format: cell-based; conditions: V9m, LS174T, V503
CXCL12 = assay: Gene expression in bone marrow cells of treated mice: CXCL12; format: in vivo, mouse; conditions: 10 mg/kg IP twice daily, 5 doses
Protocol: (§2) 2 hours following the last dose bone marrow is harvested and sorted into SKL marked cells that are hematopoietic stem cell enriched and into CD45(−) cells that are bone marrow stroma cells. RNA was extracted and gene expression determined relative to levels in mice injected with vehicle control.

SCF = assay: Gene expression in bone marrow cells of treated mice: SCF; format: in vivo, mouse; conditions: 10 mg/kg IP twice daily, 5 doses
Protocol: as §2

C57BL/6J female mice = assay: Survival of mice after whole body irradiation, SW033291 5 mg/kg IP; format: in vivo, mouse; conditions: for number of mice surviving: 9 Gy
bone marrow = assay: Hematopoietic colonies from wild-type mouse bone marrow treated ex vivo; format: cell-based; conditions: 0.5 μM, ex vivo on ice 2 hours
From the text: Treated marrow is again then plated into methylcellulose for counting of hematopoietic colonies.

[5] = 21 day toxicity study in FVB mice, daily weights; format: in vivo, mouse; conditions: 5 mg/kg IP twice daily for 21 days
NSG mice = assay: Homing of CFSE labeled human umbilical cord blood buffy coat cells in NSG mice; conditions: in vivo
Protocol: FIG. 93 illustrates a schema of an experiment in which immune deficient NSG mice are lethally irradiated (IR) and 12 hours later receive a transplant with CFSE dye labeled buffy coat cells from human umbilical cord blood (UCB), and number of transplanted cells that home and survive in the bone marrow of the recipient mice are then determined by FACS at 16 hours post-transplant. In different arms of the experiment mice are treated with vehicle or with SW033291. Drugs are administered following radiation, following the transplant, and again at 8 hours after the transplant.

FVB mice = assay: Liver regeneration after partial hepatectomy, FVB mice, SW033291 5 mg/kg IP bid; format: in vivo, mouse
Hepatocyte stability = format: in vitro ADME; conditions: in words
Protocol: as §1

C57BL/6J mice [6] = assay: Liver regeneration after partial hepatectomy, C57BL/6J mice, SW033291 5 mg/kg IP; format: in vivo; conditions: 5 mg/kg IP bid; one mouse each
15-PGDH mRNA = 15-PGDH mRNA by real-time PCR in colon cancer cell lines; format: cell-based
From the text: In these studies parental cell lines (not containing the 15-PGDH-luciferase reporter) are employed.

C57BL/6J mice [7] = assay: Competitive transplant of marrow from treated CD45.2 donor mice; format: in vivo, mouse; conditions: donor 5 mg/kg IP daily for 3 doses; weeks 12 and 16
Protocol: On day 3 mice were sacrificed, marrow flushed and mixed at a 1:1 ratio with vehicle treated CD45.1 marrow. 2 million whole BM cells were injected into the tail vein of lethally irradiated CD45.1 mice and percent chimerism measured via flow cytometry at weeks 8, 12, 16.

[8] = CD45(−) bone marrow stromal cells

For `CCCC[S+]([O-])c1sc2nc(-c3cccs3)cc(-c3ccccc3)c2c1N` (stereo not shown) [SW033291, 2-(butylsulfinyl)-4-phenyl-6-(thiophen-2-yl)thieno[2,3-b]pyridin-3-amine], the “increase of homed cells in recipient bone marrow” value (mice; FIG. 88) was 3 fold, the “increase of homed cells in recipient bone marrow” value (mice; FIG. 90) was 2 fold and the “increase of homed donor cells in recipient bone marrow” value (mice; FIG. 140) was “approximately 2.5 fold”. The Toxicity [1] was over 10 µM, the “Mouse survival (number surviving)” value (C57BL/6J mice [2]; Day 0, 1 × 10^5 cells) was 3 and the “Mouse survival (number surviving)” value (C57BL/6J mice [2]; Day 0, 2 × 10^5 cells) was 3. The “Mouse survival (number surviving)” value (C57BL/6J mice [2]; Day 0, 5 × 10^5 cells) was 3, the “Mouse survival (number surviving)” value (C57BL/6J mice [2]; Day 1, 1 × 10^5 cells) was 3 and the “Mouse survival (number surviving)” value (C57BL/6J mice [2]; Day 1, 2 × 10^5 cells) was 3. For the same molecule, the “Mouse survival (number surviving)” value (C57BL/6J mice [2]; Day 1, 5 × 10^5 cells) was 3, the “Mouse survival (number surviving)” value (C57BL/6J mice [2]; Day 2, 1 × 10^5 cells) was 3 and the “Mouse survival (number surviving)” value (C57BL/6J mice [2]; Day 2, 2 × 10^5 cells) was 3. The “Mouse survival (number surviving)” value (C57BL/6J mice [2]; Day 2, 5 × 10^5 cells) was 3, the “Mouse survival (number surviving)” value (C57BL/6J mice [2]; Day 3, 1 × 10^5 cells) was 3 and the “Mouse survival (number surviving)” value (C57BL/6J mice [2]; Day 3, 2 × 10^5 cells) was 3. The “Mouse survival (number surviving)” value (C57BL/6J mice [2]; Day 3, 5 × 10^5 cells) was 3, the “Mouse survival (number surviving)” value (C57BL/6J mice [2]; Day 4, 1 × 10^5 cells) was 2 and the “Mouse survival (number surviving)” value (C57BL/6J mice [2]; Day 4, 2 × 10^5 cells) was 3. The “Mouse survival (number surviving)” value (C57BL/6J mice [2]; Day 4, 5 × 10^5 cells) was 3, the “Mouse survival (number surviving)” value (C57BL/6J mice [2]; Day 5, 1 × 10^5 cells) was 1 and the “Mouse survival (number surviving)” value (C57BL/6J mice [2]; Day 5, 2 × 10^5 cells) was 3. The “Mouse survival (number surviving)” value (C57BL/6J mice [2]; Day 5, 5 × 10^5 cells) was 3, the “Mouse survival (number surviving)” value (C57BL/6J mice [2]; Day 6, 1 × 10^5 cells) was 0 and the “Mouse survival (number surviving)” value (C57BL/6J mice [2]; Day 6, 2 × 10^5 cells) was 2. The “Mouse survival (number surviving)” value (C57BL/6J mice [2]; Day 6, 5 × 10^5 cells) was 3, the “Mouse survival (number surviving)” value (C57BL/6J mice [2]; Day 7, 2 × 10^5 cells) was 2 and the “Mouse survival (number surviving)” value (C57BL/6J mice [2]; Day 7, 5 × 10^5 cells) was 3. For the same molecule, the “Mouse survival (number surviving)” value (C57BL/6J mice [2]; Day 8, 2 × 10^5 cells) was 2, the “Mouse survival (number surviving)” value (C57BL/6J mice [2]; Day 8, 5 × 10^5 cells) was 2 and the “Mouse survival (number surviving)” value (C57BL/6J mice [2]; Day 9, 2 × 10^5 cells) was 2. For the same molecule, the “Mouse survival (number surviving)” value (C57BL/6J mice [2]; Day 9, 5 × 10^5 cells) was 2, the “Mouse survival (number surviving)” value (C57BL/6J mice [2]; Day 10, 2 × 10^5 cells) was 2 and the “Mouse survival (number surviving)” value (C57BL/6J mice [2]; Day 10, 5 × 10^5 cells) was 2. For the same molecule, the “Mouse survival (number surviving)” value (C57BL/6J mice [2]; Day 11, 2 × 10^5 cells) was 2, the “Mouse survival (number surviving)” value (C57BL/6J mice [2]; Day 11, 5 × 10^5 cells) was 2 and the “Mouse survival (number surviving)” value (C57BL/6J mice [2]; Day 12, 2 × 10^5 cells) was 1. For the same molecule, the “Mouse survival (number surviving)” value (C57BL/6J mice [2]; Day 12, 5 × 10^5 cells) was 2, the “Mouse survival (number surviving)” value (C57BL/6J mice [2]; Day 13, 2 × 10^5 cells) was 0 and the “Mouse survival (number surviving)” value (C57BL/6J mice [2]; Day 13, 5 × 10^5 cells) was 2. The “rank of PGE2 level in medium” value (A549 cells; 100 nM drug) was “next highest level of PGE2”, the “15-PGDH activity in cells as reflected in PGE2 levels” value (A549 cells; IL1-beta 23 hours, compound for last 5 hours) was “clear inhibition of 15-PGDH activity” and the “highest PGE2 level in medium” value (A549 cells; IL-1β 16 h, then compound 8 h) was 3000 pg/mL. The “increase in numbers of hematopoietic colonies” value (C57BL/6J mice [3]) was “approximately 30%”, the “percent of Sca1+/c-Kit+ cells in lineage negative (SKL) cells” value (C57BL/6J mice [3]) was “unchanged” and the “luciferase activity, in words” value [4] was “increase luciferase activity”. For the same molecule, the “induction of CXCL12” value (CXCL12; [8]) was “greater than 4 fold”, the “induction in RNA expression of CXCL12” value (CXCL12; bone marrow SKL cells) was 3 fold and the “induction of SCF” value (SCF; [8]) was “greater than 4 fold”. The “induction in RNA expression of SCF” value (SCF; bone marrow SKL cells) was 3 fold, the “longer survival on average than vehicle control” value (C57BL/6J female mice; 11Gy, any of the three dosing schedules) was 1 to 2 days and the “longer survival than vehicle control” value (C57BL/6J female mice; 11Gy, daily for 7 doses) was 48 h. The “number of mice surviving” value (C57BL/6J female mice; Day 0, daily for 7 doses) was 3, the “number of mice surviving” value (C57BL/6J female mice; Day 5, daily for 7 doses) was 3 and the “number of mice surviving” value (C57BL/6J female mice; Day 6, daily for 7 doses) was 3. For the same molecule, the “number of mice surviving” value (C57BL/6J female mice; Day 7, daily for 7 doses) was 3, the “number of mice surviving” value (C57BL/6J female mice; Day 8, daily for 7 doses) was 3 and the “number of mice surviving” value (C57BL/6J female mice; Day 9, daily for 7 doses) was 3. The “number of mice surviving” value (C57BL/6J female mice; Day 10, daily for 7 doses) was 3, the “number of mice surviving” value (C57BL/6J female mice; Day 12, daily for 7 doses) was 2 and the “number of mice surviving” value (C57BL/6J female mice; Day 13, daily for 7 doses) was 2. For the same molecule, the “number of mice surviving” value (C57BL/6J female mice; Day 14, daily for 7 doses) was 1, the “number of mice surviving” value (C57BL/6J female mice; Day 15, daily for 7 doses) was 0 and the appearance of mice (C57BL/6J female mice; Day 25, 7 Gy, wrapped cell reads Looks Healthy) was “Looks”. The “increase in number of bone marrow derived colonies” value (bone marrow) was “approximately 50%”, the mouse weight [5] was “no evidence for SW033291 reducing mouse weight” and the “increase of homed human cells in recipient mouse bone marrow” value (NSG mice) was about 2 fold. For the same molecule, the “increase in median S-phase (BrdU positive) cells” value (FVB mice; post-operative day 2) was “greater than 2 fold”, the “greater liver weight than control” value (FVB mice; post-operative day 7, dosing from 1 hour before surgery) was “approximately 25%” and the Hepatocyte stability (Hepatocyte stability) was “Stable > couple hrs”. For the same molecule, the “serum ALT values vs control” value (C57BL/6J mice [6]) was “lower”, the “15-PGDH mRNA” value (15-PGDH mRNA; V503 cells) was “slight increase in 15-PGDH mRNA” and the “15-PGDH mRNA levels” value (15-PGDH mRNA; treated colon cancer cell lines) was “do not in general alter 15-PGDH mRNA levels”. The “percent blood chimerism of CD45.2 marked cells” value (C57BL/6J mice [7]) was “significantly increased”.

Reference: patent publication US20230285402A1, “Compositions and Methods of Modulating Short-Chain Dehydrogenase Activity” (BOARD OF REGENTS OF THE UNIVERSITY OF TEXAS SYSTEM, priority 2013, published 2023)
